For the experiment, the target named is recombinant human MGAT2 (Homo sapiens (Human), UniProt Q3SYC2). As to the kind of experiment: Measurement of human MGAT2 inhibitory activity. Type of experiment: biochemical. The settings on record: read-out: IC50 (concentration exhibiting 50% enzyme inhibition), Table 53. In a few lines:
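RapidFire ESI-MS read-out of the diolein/diolein-d5 peak ratio gave % inhibition, with no-enzyme and full-enzyme wells as 100% and 0%. Reactions ran 1 h at room temperature at pH 7.4 (phosphate, 2 mmol/L DTT), using Flag-tagged human MGAT2 membranes from Sf9 cells and a substrate solution of 30 μmol/L 2-oleoylglycerol and 10 μmol/L oleoyl-CoA.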
recombinant human MGAT2, sequence (Q3SYC2 whole entry): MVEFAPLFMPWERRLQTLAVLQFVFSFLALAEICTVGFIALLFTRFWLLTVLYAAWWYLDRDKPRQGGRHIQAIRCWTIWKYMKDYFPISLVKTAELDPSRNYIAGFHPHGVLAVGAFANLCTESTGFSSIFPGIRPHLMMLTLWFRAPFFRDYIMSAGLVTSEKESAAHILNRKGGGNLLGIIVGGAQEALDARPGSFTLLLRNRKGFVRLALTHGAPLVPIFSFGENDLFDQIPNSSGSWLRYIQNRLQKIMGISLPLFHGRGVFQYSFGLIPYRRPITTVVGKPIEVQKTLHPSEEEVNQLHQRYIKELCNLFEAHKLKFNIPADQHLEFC
Take `COc1nccc(NCc2c3c(nn2CCC2CC2)C[C@@]2(CCc4cc(OCC(F)(F)F)ccc42)NC3=O)n1` [II-68]: the IC50 is 420 nM.
The value for `O=C1N[C@]2(CCc3cc(OCC(F)(F)F)ccc32)Cc2nn(CCC3CC3)c(CNc3ccnc(O)n3)c21` [II-69] was 43.9 nM.
The value for `CNS(=O)(=O)CC(=O)Nc1c2c(nn1-c1ccc(C#N)cn1)C[C@@]1(CCc3cc(OCC(F)(F)F)ccc31)NC2=O` [II-70] was 3.94 nM; that for `Cc1nocc1-c1ccc2c(c1)CC[C@@]21Cc2nn(CCC3CC3)c(NC(=O)CS(C)(=O)=O)c2C(=O)N1` [II-71] was 12.6 nM; that for `N#Cc1ccc(-n2nc3c(c2NC(=O)C2CS(=O)(=O)C2)C(=O)N[C@@]2(CCc4cc(OCC(F)(F)F)ccc42)C3)nc1` [II-72] was 3.69 nM.
Consider `CS(=O)(=O)CC(=O)Nc1c2c(nn1-c1ccc(C#N)cn1)CC1(CN(c3c(F)cc(C(F)(F)F)cc3F)C1)NC2=O` [II-74], for which the IC50 came out at 2.3 nM.
The value for `CS(=O)(=O)CC(=O)Nc1c2c(nn1-c1ccc(C#N)cn1)C[C@]1(CCc3cc(Cl)ccc31)NC2=O` [II-75] was 3.69 nM; that for `CS(=O)(=O)CC(=O)Nc1c2c(nn1CCC1CC1)C[C@@]1(CCc3cc(C4CC4)ccc31)NC2=O` [II-76] was 6 nM; that for `CS(=O)(=O)CC(=O)Nc1c2c(nn1CCC1CC1)C[C@@]1(CCc3cc(OCC(F)F)ccc31)NC2=O` [II-77] was 5.5 nM.
`CS(=O)(=O)CC(=O)Nc1c2c(nn1-c1ccc(C#N)cn1)CC1(CN(c3nc(C(F)(F)F)cs3)C1)NC2=O` [II-78]: the IC50 was determined as 45 nM.
Regarding `CS(=O)(=O)CC(=O)Nc1c2c(nn1-c1ccc(C#N)cn1)CC1(CN(c3nc(C(F)(F)F)co3)C1)NC2=O` [II-79], the IC50 worked out at 110 nM.
Then `CC(C)c1ccc(N2CC3(Cc4nn(-c5ccc(C#N)cn5)c(NC(=O)CS(C)(=O)=O)c4C(=O)N3)C2)cc1` [II-80], with 9.1 nM; and `O=C1N[C@@]2(CCc3cc(OCC(F)(F)F)ccc32)Cc2nn(CCC3CC3)c(NC(=O)[C@H]3CCCS3(=O)=O)c21` [II-81], with 46.6 nM.
Then `CS(=O)(=O)CC(=O)Nc1c2c(nn1CCC1CC1)C[C@@]1(CCc3cc(OCC4CC(F)(F)C4)ccc31)NC2=O` [II-82], with 2.49 nM.
For `CS(=O)(=O)CC(=O)Nc1c2c(nn1CCC1CC1)C[C@@]1(CCc3cc(-c4cnn(C(F)(F)F)c4)ccc31)NC2=O` [II-83], the IC50 is 1.99 nM.
Then `CS(=O)(=O)CC(=O)Nc1c2c(nn1CCCC(F)(F)F)C[C@@]1(NC2=O)c2ccc(OCC(F)(F)F)cc2CC1(F)F` [II-85], with 45.5 nM; and `Cc1ccc(-n2nc3c(c2NC(=O)CS(C)(=O)=O)C(=O)N[C@@]2(C3)c3ccc(OCC(F)(F)F)cc3CC2(F)F)nc1` [II-86], with 3.37 nM.
Consider `CS(=O)(=O)CC(=O)Nc1c2c(nn1-c1ccc(C#N)cn1)C[C@]1(NC2=O)c2ccc(OCC(F)(F)F)cc2CC1(F)F` [II-87], for which the IC50 is 2.63 nM.
Then `CS(=O)(=O)CC(=O)Nc1c2c(nn1-c1ccc(F)c(F)c1)C[C@]1(NC2=O)c2ccc(OCC(F)(F)F)cc2CC1(F)F` [II-88], with 3.67 nM.
Then `CS(=O)(=O)CC(=O)Nc1c2c(nn1-c1ccc(C#N)cn1)CC1(CN(c3cccc(C(F)(F)F)c3)C1)NC2=O` [II-89], with 10.8 nM.
As for `CS(=O)(=O)CC(=O)Nc1c2c(nn1-c1ccc(C#N)cn1)CC1(CN(c3ccc(C(F)(F)F)nc3)C1)NC2=O` [II-90], the IC50 amounted to 40 nM.
On to `N#Cc1ccc(-n2nc3c(c2NC(=O)C2CCS(=O)(=O)C2)C(=O)N[C@@]2(CCc4cc(OCC(F)(F)F)ccc42)C3)nc1` (some centres unmarked) [II-91], for which the IC50 worked out at 2.79 nM.
Then `CS(=O)(=O)CC(=O)Nc1c2c(nn1CCC1CC1)C[C@@]1(NC2=O)c2ccc(OCC(F)(F)F)cc2CC1(F)F` [II-92], with 44.3 nM; and `C[C@@]1(c2ccc(OCC(F)(F)F)cc2F)Cc2nn(-c3ccc(C#N)cn3)c(NC(=O)CS(C)(=O)=O)c2C(=O)N1` [II-95], with 4.29 nM; and `C[C@@]1(c2ccc(OCC(F)(F)F)cc2F)Cc2nn(-c3ccc(F)c(F)c3)c(NC(=O)CS(C)(=O)=O)c2C(=O)N1` [II-96], with 8.88 nM.
Then `CS(=O)(=O)CC(=O)Nc1c2c(nn1CCCOC(F)(F)F)C[C@@]1(NC2=O)c2ccc(OCC(F)(F)F)cc2CC1(F)F` [II-97], with 3.97 nM; and `CS(=O)(=O)CC(=O)Nc1c2c(nn1CCC1CC1)C[C@@]1(CCc3cc(OC4CC4)ccc31)NC2=O` [II-98], with 7.1 nM.
The value for `CS(=O)(=O)CC(=O)Nc1c2c(nn1CCC1CC1)C[C@@]1(CCc3cc(OCCOCC(F)F)ccc31)NC2=O` [II-99] was 9.59 nM; that for `CS(=O)(=O)CC(=O)Nc1c2c(nn1CCC1CC1)C[C@@]1(CCc3cc(OCCOCC(F)(F)F)ccc31)NC2=O` [II-100] was 4.76 nM; that for `CS(=O)(=O)CC(=O)Nc1c2c(nn1CCC1CC1)C[C@@]1(CCc3cc(OCCCC(F)(F)F)ccc31)NC2=O` [II-101] was 1.25 nM.
`CS(=O)(=O)CC(=O)Nc1c2c(nn1-c1ccc(C#N)cn1)CC1(Cc3cc(F)c(F)cc3C1)NC2=O` [II-102]: the IC50 was 56.3 nM.
Take `CS(=O)(=O)CC(=O)Nc1c2c(nn1-c1ccc(C#N)c(F)c1)C[C@]1(CCc3cc(OCC(F)(F)F)ccc31)NC2=O` [II-104]: the IC50 is 11.5 nM.
Then `CS(=O)(=O)CC(=O)Nc1c2c(nn1-c1ccc(C3CC3)nn1)C[C@]1(CCc3cc(OCC(F)(F)F)ccc31)NC2=O` [II-105], with 2.68 nM; and `CS(=O)(=O)CC(=O)Nc1c2c(nn1-c1ccc(C(F)(F)F)nn1)C[C@]1(CCc3cc(OCC(F)(F)F)ccc31)NC2=O` [II-106], with 1.72 nM; and `CS(=O)(=O)CC(=O)Nc1c2c(nn1-c1ccon1)C[C@]1(CCc3cc(OCC(F)(F)F)ccc31)NC2=O` [II-107], with 40.7 nM.
On to `N#Cc1ccc(-n2nc3c(c2C(=O)NCC2(O)CCC2)C(=O)N[C@@]2(CCc4cc(OCC(F)(F)F)ccc42)C3)nc1` [II-108], for which the IC50 amounted to 2.51 nM.
The value for `N#Cc1ccc(-n2nc3c(c2C(=O)NCC2(CO)CCCC2)C(=O)N[C@@]2(CCc4cc(OCC(F)(F)F)ccc42)C3)nc1` [II-109] was 23.1 nM.
Then `N#Cc1ccc(-n2nc3c(c2C(=O)NC2(C#N)CC2)C(=O)N[C@@]2(CCc4cc(OCC(F)(F)F)ccc42)C3)nc1` [II-110], with 30.4 nM; and `CS(=O)(=O)CCNC(=O)c1c2c(nn1-c1ccc(C#N)cn1)C[C@]1(CCc3cc(OCC(F)(F)F)ccc31)NC2=O` [II-111], with 50.8 nM; and `N#Cc1ccc(-n2nc3c(c2C(=O)NCC2(O)CC2)C(=O)N[C@@]2(CCc4cc(OCC(F)(F)F)ccc42)C3)nc1` [II-112], with 5.28 nM.
The value for `N#Cc1ccc(-n2nc3c(c2C(=O)NC2(C#N)CCCCC2)C(=O)N[C@@]2(CCc4cc(OCC(F)(F)F)ccc42)C3)nc1` [II-113] was 8.23 nM; that for `N#Cc1ccc(-n2nc3c(c2C(=O)NCCOC(F)(F)F)C(=O)N[C@@]2(CCc4cc(OCC(F)(F)F)ccc42)C3)nc1` [II-114] was 60.3 nM.
Regarding `CC(C)(CNC(=O)c1c2c(nn1-c1ccc(C#N)cn1)C[C@]1(CCc3cc(OCC(F)(F)F)ccc31)NC2=O)C(N)=O` [II-115], the IC50 came out at 204 nM.
Take `N#Cc1ccc(-n2nc3c(c2C(=O)NCC2(CO)CCC2)C(=O)N[C@@]2(CCc4cc(OCC(F)(F)F)ccc42)C3)nc1` [II-116]: the IC50 stood at 3.96 nM.
Then `N#Cc1ccc(-n2nc3c(c2C(=O)N[C@H]2C[C@H](O)C2)C(=O)N[C@@]2(CCc4cc(OCC(F)(F)F)ccc42)C3)nc1` [II-117], with 37.9 nM.
For the molecule `N#Cc1ccc(-n2nc3c(c2C(=O)NCC2(O)COC2)C(=O)N[C@@]2(CCc4cc(OCC(F)(F)F)ccc42)C3)nc1` [II-118], the IC50 worked out at 6.26 nM.
The value for `N#Cc1ccc(-n2nc3c(c2C(=O)NCC2(O)CCOC2)C(=O)N[C@@]2(CCc4cc(OCC(F)(F)F)ccc42)C3)nc1` (some centres unmarked) [II-119] was 26.8 nM.
The value for `Cc1ccc(-n2nc3c(c2NC(=O)CS(C)(=O)=O)C(=O)N[C@@]2(CCc4cc(N5CC(F)(F)C5)ccc42)C3)nc1` [II-120] was 9.29 nM; that for `Cc1ccc(-n2nc3c(c2NC(=O)CS(C)(=O)=O)C(=O)N[C@@]2(CCc4cc(C(F)(F)F)ccc42)C3)nc1` [II-122] was 5.68 nM.
Then `COCCCNC(=O)c1c2c(nn1-c1ccc(C#N)cn1)C[C@]1(CCc3cc(OCC(F)(F)F)ccc31)NC2=O` [II-123], with 21.7 nM; and `N#Cc1ccc(-n2nc3c(c2C(=O)NCC(F)(F)F)C(=O)N[C@@]2(CCc4cc(OCC(F)(F)F)ccc42)C3)nc1` [II-124], with 19.6 nM; and `COCCNC(=O)c1c2c(nn1-c1ccc(C#N)cn1)C[C@]1(CCc3cc(OCC(F)(F)F)ccc31)NC2=O` [II-125], with 63.5 nM.
Consider `N#Cc1ccc(-n2nc3c(c2C(=O)NCCC(F)(F)F)C(=O)N[C@@]2(CCc4cc(OCC(F)(F)F)ccc42)C3)nc1` [II-126], for which the IC50 stood at 12.7 nM.
Then `N#Cc1ccc(-n2nc3c(c2C(=O)NCC(N)=O)C(=O)N[C@@]2(CCc4cc(OCC(F)(F)F)ccc42)C3)nc1` [II-127], with 39.2 nM; and `N#CCNC(=O)c1c2c(nn1-c1ccc(C#N)cn1)C[C@]1(CCc3cc(OCC(F)(F)F)ccc31)NC2=O` [II-128], with 10.2 nM.
Then `N#Cc1ccc(-n2nc3c(c2C(=O)NCC(O)c2ccccn2)C(=O)N[C@@]2(CCc4cc(OCC(F)(F)F)ccc42)C3)nc1` (some centres unmarked) [II-129], with 202 nM; and `N#Cc1ccc(-n2nc3c(c2C(=O)N[C@H]2CC[C@H](O)CC2)C(=O)N[C@@]2(CCc4cc(OCC(F)(F)F)ccc42)C3)nc1` [II-130], with 130 nM.
Take `N#Cc1ccc(-n2nc3c(c2C(=O)NCC2(CO)CC2)C(=O)N[C@@]2(CCc4cc(OCC(F)(F)F)ccc42)C3)nc1` [II-131]: the IC50 stood at 5.79 nM.
Take `N#Cc1ccc(-n2nc3c(c2C(=O)NC2CCNC2=O)C(=O)N[C@@]2(CCc4cc(OCC(F)(F)F)ccc42)C3)nc1` (some centres unmarked) [II-132]: the IC50 stood at 193 nM.
